Measurements as given in patent US7427617B2, “Morpoline-bridged indazole derivatives” (Bayer Healthcare AG, priority 2002, dated 2008).

Test system: primary cortical neurons
Assay: Increase of cGMP in primary cortical neurons
Assay type: cell-based
Conditions: 0.1 μM test substance; rat primary cortical neurons; IBMX 100 μM; 20 min at 37° C.; cGMP by EIA
Description: Increase of cGMP in Primary Cortical Neurons
Rat embryos (embryonic day 17-19) are decapitated, and the cerebrum is removed and incubated with 5 ml of papain solution and 250 μl of DNAse (papain kit from Cell-System) at 37° C. for 30 min, homogenized using a Pasteur pipette and centrifuged at 1200 rpm for 5 min. The supernatant is removed, the cell pellet resuspended (in 2.7 ml of EBSS [Earl's balanced salt solution], 300 μl of ovomucoid/albumin (conc.) solution, 150 μl of DNAse; papain kit from Cell-System), layered over 5 ml of ovomucoid/albumin solution and centrifuged at 700 rpm for 6 min. The supernatant is removed, the cells are resuspended in cultivation medium (Gibco neurobasal medium, B27 Supplement 50×1 ml/100 ml, 2 mM L-glutamine), counted (approx. 150 000 cells/well) and plated out on poly-D-lysine-coated 96-well plates (Costar) with 200 μl/well. After 6-7 days at 37° C. (5% CO2), the neurons are freed of culture medium and washed once with assay buffer (154 mM NaCl, 5.6 mM KCl, 2.3 mM CaCl22H2O, 1 mM MgCl2, 5.6 mM glucose, 8.6 mM HEPES (4-(2-hydroxyethyl)piperazine-1-ethanesulfonic acid), pH=7.4). […] After incubation at 37° C. for 20 min, the assay buffer is replaced by 200 μl/well of lysis buffer (cGMP EIA RPN 226 from Amersham Pharmacia Biotech), and the cGMP content of the lystates is determined using an EIA assay kit.

## Nc1nc(-c2nn(Cc3ccccc3F)c3ccccc23)ncc1N1C2CCCC1COC2 [Example 1, 2-[1-(2-Fluorobenzyl)-1H-indazol-3-yl]-5-(3-oxa-9-azabicyclo[3.3.1]non-9-yl)-4pyrimidinylamine]
  increase in cGMP: statistically significant increase in cGMP
